The source of these data is ChEMBL document CHEMBL1201862, “PubChem BioAssay data set” (2004).

Test [1] in a line: Luminescence Cell-Based Dose Response HTS to Identify Inhibitors of 5'UTR Stem-Loop Driven Prion Protein mRNA Translation in H4 Neuroglioblastoma Cells. [Related pubchem assays: 1827 (Project Summary), 1813 (Primary HTS)]. In kind it is functional.
Test [2] in a line: alpha-synuclein stem-loop luciferase translation blockers – H4 neuroglioma cells, luminescence, confirmation (AID 1988). In kind it is functional, cell-based.
In test [3] the target is G-protein coupled receptor 55 (Homo sapiens, UniProt Q9Y2T6). The test is described as follows: inhibition of LPI-stimulated GPR55 beta-arrestin translocation – imaging, U2OS, beta-arrestin-GFP, LPI agonist, primary screen (AID 2013).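 Note: antagonist potency measured as reduced agonist-driven arrestin aggregation.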 In kind it is functional.
For test [4], the target named is T1, Apoptotic protease-activating factor 1 (Homo sapiens, UniProt O14727).
T1 sequence (O14727 whole entry): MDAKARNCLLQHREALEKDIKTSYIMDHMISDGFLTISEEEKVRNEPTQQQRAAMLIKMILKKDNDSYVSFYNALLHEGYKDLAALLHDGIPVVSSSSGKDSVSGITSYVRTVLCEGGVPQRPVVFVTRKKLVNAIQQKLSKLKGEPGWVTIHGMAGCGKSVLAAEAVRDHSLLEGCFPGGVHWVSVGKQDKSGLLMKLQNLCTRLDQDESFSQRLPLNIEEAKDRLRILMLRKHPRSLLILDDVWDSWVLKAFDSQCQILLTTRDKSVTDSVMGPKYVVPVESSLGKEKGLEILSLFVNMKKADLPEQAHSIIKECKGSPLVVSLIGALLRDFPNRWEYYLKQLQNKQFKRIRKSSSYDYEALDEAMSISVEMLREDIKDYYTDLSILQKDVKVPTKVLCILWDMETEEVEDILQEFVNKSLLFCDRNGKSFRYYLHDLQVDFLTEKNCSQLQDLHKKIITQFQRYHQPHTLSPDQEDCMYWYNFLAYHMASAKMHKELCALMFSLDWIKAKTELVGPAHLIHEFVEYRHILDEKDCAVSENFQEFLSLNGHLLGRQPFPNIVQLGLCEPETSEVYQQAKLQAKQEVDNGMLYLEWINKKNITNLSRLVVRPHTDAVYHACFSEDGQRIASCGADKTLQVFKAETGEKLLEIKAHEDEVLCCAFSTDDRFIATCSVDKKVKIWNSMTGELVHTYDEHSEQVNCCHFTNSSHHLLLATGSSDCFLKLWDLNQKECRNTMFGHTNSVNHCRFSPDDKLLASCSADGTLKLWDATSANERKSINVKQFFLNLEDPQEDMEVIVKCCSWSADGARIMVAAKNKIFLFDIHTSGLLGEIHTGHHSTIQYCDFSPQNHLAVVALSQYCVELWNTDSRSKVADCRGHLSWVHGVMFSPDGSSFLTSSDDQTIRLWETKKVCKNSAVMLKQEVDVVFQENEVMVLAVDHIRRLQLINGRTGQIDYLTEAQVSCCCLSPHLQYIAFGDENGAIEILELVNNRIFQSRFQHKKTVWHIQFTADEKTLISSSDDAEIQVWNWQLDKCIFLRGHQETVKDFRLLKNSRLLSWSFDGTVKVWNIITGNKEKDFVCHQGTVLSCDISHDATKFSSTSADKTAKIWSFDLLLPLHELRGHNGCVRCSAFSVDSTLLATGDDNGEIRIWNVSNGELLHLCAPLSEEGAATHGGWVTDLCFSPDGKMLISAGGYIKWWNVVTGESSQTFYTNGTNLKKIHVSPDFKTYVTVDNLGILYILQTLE
In kind it is functional.

The target in test [5] is T2, Protein RecA (Mycobacterium tuberculosis, UniProt P9WHJ3).
T2 sequence (P9WHJ3 whole entry): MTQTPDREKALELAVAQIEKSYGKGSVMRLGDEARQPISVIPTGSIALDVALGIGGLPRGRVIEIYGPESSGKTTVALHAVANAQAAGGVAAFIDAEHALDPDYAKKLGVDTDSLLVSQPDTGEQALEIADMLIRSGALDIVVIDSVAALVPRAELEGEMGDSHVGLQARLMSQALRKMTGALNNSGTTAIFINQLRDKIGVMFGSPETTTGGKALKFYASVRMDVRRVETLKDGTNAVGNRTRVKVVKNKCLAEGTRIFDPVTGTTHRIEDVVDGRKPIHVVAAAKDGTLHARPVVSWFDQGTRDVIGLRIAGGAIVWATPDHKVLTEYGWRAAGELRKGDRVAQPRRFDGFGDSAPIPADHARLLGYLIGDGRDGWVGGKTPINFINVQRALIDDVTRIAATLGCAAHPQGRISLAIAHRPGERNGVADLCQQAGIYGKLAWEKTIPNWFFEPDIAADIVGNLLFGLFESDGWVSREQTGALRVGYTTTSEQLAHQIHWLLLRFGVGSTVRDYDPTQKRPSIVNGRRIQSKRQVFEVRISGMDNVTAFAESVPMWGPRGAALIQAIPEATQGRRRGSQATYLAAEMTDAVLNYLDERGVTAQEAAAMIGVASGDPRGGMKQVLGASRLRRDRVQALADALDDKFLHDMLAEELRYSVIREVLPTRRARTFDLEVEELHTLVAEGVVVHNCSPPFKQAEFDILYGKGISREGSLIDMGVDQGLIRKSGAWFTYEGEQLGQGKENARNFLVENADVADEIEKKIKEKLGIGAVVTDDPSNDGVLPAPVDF
The test is described as follows: Fluorescence Cell-Free Homogeneous Dose Retest to Identify Inhibitors of RecA-Intein Splicing Activity. [Related pubchem assays (depositor defined):AID2097, AID2223, AID489010, AID492950]. In kind it is functional.

Test [6] deals with T3, RNA-binding protein pos-1 (Caenorhabditis elegans, UniProt G5EF15).
T3 sequence (G5EF15 whole entry): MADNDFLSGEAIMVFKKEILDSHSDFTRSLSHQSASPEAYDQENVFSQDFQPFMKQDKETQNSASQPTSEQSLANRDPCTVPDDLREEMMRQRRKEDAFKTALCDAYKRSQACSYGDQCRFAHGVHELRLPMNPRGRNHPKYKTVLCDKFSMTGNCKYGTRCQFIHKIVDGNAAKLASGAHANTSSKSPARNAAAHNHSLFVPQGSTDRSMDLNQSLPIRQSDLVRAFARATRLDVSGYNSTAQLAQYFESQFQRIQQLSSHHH
The test is described as follows: disruptors of C. elegans POS-1 RNA interaction – biochemical, fluorescence polarization, dose response (AID 1964).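 Note: purified POS-1 fused to maltose binding protein made in E. coli; potency of compounds blocking POS-1 binding to fluorescent RNA.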

The target in test [7] is DNA dC->dU-editing enzyme APOBEC-3A (Homo sapiens, UniProt P31941). Put plainly: A3A deaminase inhibition for selectivity – biochemical, dose response (AID 504722). In kind it is functional.

Calls of active or inactive are those of the source. Cut-off read from the data, not from the text of the source, for most assays here: actives have a measured EC50 and inactives only a lower limit.

Chain of DNA dC->dU-editing enzyme APOBEC-3A (P31941 whole entry): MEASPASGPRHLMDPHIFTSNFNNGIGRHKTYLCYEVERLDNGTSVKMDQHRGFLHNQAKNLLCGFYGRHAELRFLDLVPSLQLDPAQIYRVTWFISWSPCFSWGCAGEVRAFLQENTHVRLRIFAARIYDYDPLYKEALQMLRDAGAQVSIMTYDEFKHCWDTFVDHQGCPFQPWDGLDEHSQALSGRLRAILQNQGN
Chain of G-protein coupled receptor 55 (Q9Y2T6 whole entry): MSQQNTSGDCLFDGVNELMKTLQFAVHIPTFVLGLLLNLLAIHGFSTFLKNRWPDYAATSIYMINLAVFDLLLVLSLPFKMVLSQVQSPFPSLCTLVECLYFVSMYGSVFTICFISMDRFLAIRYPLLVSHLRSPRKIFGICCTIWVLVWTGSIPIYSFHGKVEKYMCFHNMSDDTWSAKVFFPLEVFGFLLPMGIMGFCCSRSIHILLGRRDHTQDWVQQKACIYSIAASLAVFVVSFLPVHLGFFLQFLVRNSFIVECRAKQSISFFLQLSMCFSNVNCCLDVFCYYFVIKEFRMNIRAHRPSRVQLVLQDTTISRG

Regarding `Cc1ccc(NC2=C/C(=N\S(=O)(=O)c3cccs3)c3ccccc3C2=O)c(C)c1`, the EC50 is 8.59 µM (inconclusive) in test [1], 8.43 µM (inconclusive) in test [2] and 0.185 µM (active) in test [5]. Besides, the results for the IC50 in test [3] and in test [4] were 1.87 µM (active) and 0.411 µM (active), respectively.
`Oc1ccc(-c2cn3c(n2)SCC3)cc1O`: in test [6], the concentration giving a half-maximal response (EC50) is 3.63 µM (active). In addition, in test [7], the IC50 is > 100 µM (inactive).
For `COc1ccc(/C=N/NC(=O)c2nn(-c3ccccc3)c(=O)c3c(N)scc23)cc1`, the IC50 in test [4] is 15.3 µM (active). The EC50 in test [5] is 0.22 µM (active).
Regarding `CC(=O)N(C1=C(Cl)C(=O)c2ccccc2C1=O)C1CCCCC1`, the EC50 in test [6] was 139 µM (active); in test [1] it was 20.5 µM (active); in test [2], > 120 µM (not active); in test [5] it was 1.18 µM (active). The results for the IC50 in test [3], in test [7] and in test [4] were 4.55 µM (active), > 100 µM (inactive) and 3.12 µM (active), respectively.
